Measured values reported in US6740642B2, “Macrolides with antibacterial activity” (BAsilea Parmaceutica AG, priority 2000, dated 2004).
Converted amounts (≈) assume the structure as drawn.

Legend:
H. influenzae H28 HEL = experiment: MIC, agar dilution, HTM medium; assay type: cell-based, Haemophilus influenzae; settings: Haemophilus influenzae, H28HEL, read-out: MIC
Excerpt: (§1) The biological activities of compounds of the present invention against Haemophilus influenzae have been determined by standard agar dilution method using HTM medium (National Committee for Clinical Laboratory Standards. 1997. Methods for dilution antimicrobial susceptibility tests for bacteria that grow aerobically, 4th edition. Approved standard M7-A4. National Committee for Clinical Laboratory Standards, Wayne, Pa.).

H. influenzae 3640 = experiment: MIC, agar dilution, HTM medium; assay type: cell-based, Haemophilus influenzae; settings: Haemophilus influenzae, read-out: MIC
Excerpt: as §1

H. influenzae H36 ODL = experiment: MIC, agar dilution, HTM medium; assay type: cell-based, Haemophilus influenzae; settings: Haemophilus influenzae, H36ODL, read-out: MIC
Excerpt: as §1

H. influenzae H13 LAH = experiment: MIC, agar dilution, HTM medium; assay type: cell-based, Haemophilus influenzae; settings: Haemophilus influenzae, H13LAH, read-out: MIC
Excerpt: as §1

H. influenzae 23145 = experiment: MIC, agar dilution, HTM medium; assay type: cell-based, Haemophilus influenzae; settings: Haemophilus influenzae, read-out: MIC
Excerpt: as §1

H. influenzae 4139 = experiment: MIC, agar dilution, HTM medium; assay type: cell-based, Haemophilus influenzae; settings: Haemophilus influenzae, read-out: MIC
Excerpt: as §1

H. influenzae Rd KW20 = experiment: MIC, agar dilution, HTM medium; assay type: cell-based, Haemophilus influenzae; settings: Haemophilus influenzae, RDKW20, read-out: MIC
Excerpt: as §1

H. influenzae H20 HDL = experiment: MIC, agar dilution, HTM medium; assay type: cell-based, Haemophilus influenzae; settings: Haemophilus influenzae, H20HDL, read-out: MIC
Excerpt: as §1

H. influenzae QK 12/87 = experiment: MIC, agar dilution, HTM medium; assay type: cell-based, Haemophilus influenzae; settings: Haemophilus influenzae, QK12/87, read-out: MIC
Excerpt: as §1

H. influenzae 23369 = experiment: MIC, agar dilution, HTM medium; assay type: cell-based, Haemophilus influenzae; settings: Haemophilus influenzae, read-out: MIC
Excerpt: as §1

H. influenzae ATCC 9334 = experiment: MIC, agar dilution, HTM medium; assay type: cell-based, Haemophilus influenzae; settings: Haemophilus influenzae, ATCC9334, read-out: MIC
Excerpt: as §1

H. influenzae 3457 = experiment: MIC, agar dilution, HTM medium; assay type: cell-based, Haemophilus influenzae; settings: Haemophilus influenzae, read-out: MIC
Excerpt: as §1

H. influenzae 3201 = experiment: MIC, agar dilution, HTM medium; assay type: cell-based, Haemophilus influenzae; settings: Haemophilus influenzae, read-out: MIC
Excerpt: as §1

H. influenzae ATCC 49247 = experiment: MIC, agar dilution, HTM medium; assay type: cell-based, Haemophilus influenzae; settings: Haemophilus influenzae, ATCC49247, read-out: MIC
Excerpt: as §1

H. influenzae QK 50 = experiment: MIC, agar dilution, HTM medium; assay type: cell-based, Haemophilus influenzae; settings: Haemophilus influenzae, QK50, read-out: MIC
Excerpt: as §1

H. influenzae B 1501 = experiment: MIC, agar dilution, HTM medium; assay type: cell-based, Haemophilus influenzae; settings: Haemophilus influenzae, B1501, read-out: MIC
Excerpt: as §1

H. influenzae Christy = experiment: MIC, agar dilution, HTM medium; assay type: cell-based, Haemophilus influenzae; settings: Haemophilus influenzae, read-out: MIC
Excerpt: as §1

H. influenzae 12214 = experiment: MIC, agar dilution, HTM medium; assay type: cell-based, Haemophilus influenzae; settings: Haemophilus influenzae, read-out: MIC
Excerpt: as §1

H. influenzae 11 = experiment: MIC, agar dilution, HTM medium; assay type: cell-based, Haemophilus influenzae; settings: Haemophilus influenzae, read-out: MIC
Excerpt: as §1

H. influenzae 1 = experiment: MIC, agar dilution, HTM medium; assay type: cell-based, Haemophilus influenzae; settings: Haemophilus influenzae, read-out: MIC
Excerpt: as §1

H. influenzae 2947 = experiment: MIC, agar dilution, HTM medium; assay type: cell-based, Haemophilus influenzae; settings: Haemophilus influenzae, read-out: MIC
Excerpt: as §1

E. coli ATCC25922 = experiment: MIC, standard microdilution; assay type: cell-based; settings: Escherichia coli, read-out: minimum inhibitory concentration (MIC)
Excerpt: (§2) The antibacterial activities of the compounds have been determined by standard microdilution technique (National Committee for Clinical Laboratory Standards. 1997. Methods for dilution antimicrobial susceptibility tests for bacteria that grow aerobically, 4th edition. Approved standard M7-A4. National Committee for Clinical Laboratory Standards, Wayne, Pa.).

[1] = test system: P. aeruginosa ATCC27853 (+Ery. 32 μg/ml); experiment: MIC, standard microdilution; assay type: cell-based
Excerpt: as §2

St. pneumoniae SL199T = experiment: MIC, standard microdilution; assay type: cell-based, Streptococcus pneumoniae; settings: Streptococcus pneumoniae, read-out: minimum inhibitory concentration (MIC)
Excerpt: as §2

St. pneumoniae 1/1 = experiment: MIC, standard microdilution; assay type: cell-based, Streptococcus pneumoniae; settings: Streptococcus pneumoniae, read-out: minimum inhibitory concentration (MIC)
Excerpt: as §2

St. pneumoniae 1/4 = experiment: MIC, standard microdilution; assay type: cell-based, Streptococcus pneumoniae; settings: Streptococcus pneumoniae, read-out: minimum inhibitory concentration (MIC)
Excerpt: as §2

St. pneumoniae 12288 = experiment: MIC, standard microdilution; assay type: cell-based, Streptococcus pneumoniae; settings: Streptococcus pneumoniae, read-out: minimum inhibitory concentration (MIC)
Excerpt: as §2

S. aureus ATCC29213 = experiment: MIC, standard microdilution; assay type: cell-based, Staphylococcus aureus; settings: Staphylococcus aureus, read-out: minimum inhibitory concentration (MIC)
Excerpt: as §2

S. aureus 1086 = experiment: MIC, standard microdilution; assay type: cell-based, Staphylococcus aureus; settings: Staphylococcus aureus, read-out: minimum inhibitory concentration (MIC)
Excerpt: as §2

S. aureus 745 = experiment: MIC, standard microdilution; assay type: cell-based, Staphylococcus aureus; settings: Staphylococcus aureus, read-out: minimum inhibitory concentration (MIC)
Excerpt: as §2

CC[C@H]1OC(=O)[C@H](C)[C@@H](O[C@H]2C[C@@](C)(OC)[C@@H](O)C(C)O2)[C@H](C)[C@@H](O[C@@H]2OC(C)C[C@H](N(C)C)[C@H]2O)[C@](C)(O)C[C@@H](C)CN(C)C(C)C(O)[C@]1(C)O (stereo partly drawn) [Azithromycin (3), azithromycin]
MIC (H. influenzae H28 HEL): 1 µg/mL (≈ 1.34 µM)
MIC (H. influenzae 3640): 1 µg/mL (≈ 1.34 µM)
MIC (H. influenzae H36 ODL): 2 µg/mL (≈ 2.67 µM)
MIC (H. influenzae H13 LAH): 2 µg/mL (≈ 2.67 µM)
MIC (H. influenzae 23145): 2 µg/mL (≈ 2.67 µM)
MIC (H. influenzae 4139): 0.5 µg/mL (≈ 0.668 µM)
MIC (H. influenzae Rd KW20): 2 µg/mL (≈ 2.67 µM)
MIC (H. influenzae H20 HDL): 1 µg/mL (≈ 1.34 µM)
MIC (H. influenzae QK 12/87): 0.5 µg/mL (≈ 0.668 µM)
MIC (H. influenzae 23369): 4 µg/mL (≈ 5.34 µM)
MIC (H. influenzae ATCC 9334): 2 µg/mL (≈ 2.67 µM)
MIC (H. influenzae 3457): 0.5 µg/mL (≈ 0.668 µM)
MIC (H. influenzae 3201): 2 µg/mL (≈ 2.67 µM)
MIC (H. influenzae ATCC 49247): 2 µg/mL (≈ 2.67 µM)
MIC (H. influenzae QK 50): 2 µg/mL (≈ 2.67 µM)
MIC (H. influenzae B 1501): 1 µg/mL (≈ 1.34 µM)
MIC (H. influenzae Christy): 2 µg/mL (≈ 2.67 µM)
MIC (H. influenzae 12214): 2 µg/mL (≈ 2.67 µM)
MIC (H. influenzae 11): 2 µg/mL (≈ 2.67 µM)
MIC (H. influenzae 1): 2 µg/mL (≈ 2.67 µM)
MIC (H. influenzae 2947): 2 µg/mL (≈ 2.67 µM)

CC[C@H]1OC(=O)[C@H](C)C(=O)[C@H](C)[C@@H](O[C@@H]2O[C@H](C)C[C@H](N(C)C)[C@H]2O)[C@](C)(OC)C[C@@H](C)C(=O)[C@H](C)[C@H]2[C@H](SCCn3cnc4c(N)ncnc43)C(=O)O[C@@]21C [Compound I-14, (3S,3aR,4R,6R,8R,9R,10R,12R,15R,15aS)-3-[[2-[6-Amino-9H-purine-9-yl]ethyl]thio]-15-ethyloctahydro-8-methoxy-4,6,8,10,12,15a-hexamethyl-9-[[3,4,6-trideoxy-3-(dimethylamino)-β-D-xylo-hexopyranosyl]oxy]-2H-furo[2,3-c]oxacyclotetradecin-2,5,11,13(3H,6H,12H)-tetrone]
MIC (E. coli ATCC25922): 8 µg/mL (≈ 9.94 µM)
minimum inhibitory concentration (MIC) [1]: >16 µg/mL
MIC (St. pneumoniae SL199T): 0.25 µg/mL (≈ 0.311 µM)
MIC (St. pneumoniae 1/1): ≤ 0.12 µg/mL
MIC (St. pneumoniae 1/4): 0.25 µg/mL (≈ 0.311 µM)
MIC (St. pneumoniae 12288): 0.25 µg/mL (≈ 0.311 µM)
MIC (H. influenzae H28 HEL): 2 µg/mL (≈ 2.48 µM)
MIC (H. influenzae 3640): 2 µg/mL (≈ 2.48 µM)
MIC (H. influenzae H36 ODL): 2 µg/mL (≈ 2.48 µM)
MIC (H. influenzae H13 LAH): 2 µg/mL (≈ 2.48 µM)
MIC (H. influenzae 23145): 4 µg/mL (≈ 4.97 µM)
MIC (H. influenzae 4139): 2 µg/mL (≈ 2.48 µM)
MIC (H. influenzae Rd KW20): 4 µg/mL (≈ 4.97 µM)
MIC (H. influenzae H20 HDL): 1 µg/mL (≈ 1.24 µM)
MIC (H. influenzae QK 12/87): 0.5 µg/mL (≈ 0.621 µM)
MIC (H. influenzae 23369): 4 µg/mL (≈ 4.97 µM)
MIC (H. influenzae ATCC 9334): 4 µg/mL (≈ 4.97 µM)
MIC (H. influenzae 3457): 0.25 µg/mL (≈ 0.311 µM)
MIC (H. influenzae 3201): 4 µg/mL (≈ 4.97 µM)
MIC (H. influenzae ATCC 49247): 1 µg/mL (≈ 1.24 µM)
MIC (H. influenzae QK 50): 2 µg/mL (≈ 2.48 µM)
MIC (H. influenzae B 1501): 1 µg/mL (≈ 1.24 µM)
MIC (H. influenzae Christy): 2 µg/mL (≈ 2.48 µM)
MIC (H. influenzae 12214): 2 µg/mL (≈ 2.48 µM)
MIC (H. influenzae 11): 4 µg/mL (≈ 4.97 µM)
MIC (H. influenzae 1): 1 µg/mL (≈ 1.24 µM)
MIC (H. influenzae 2947): 2 µg/mL (≈ 2.48 µM)
MIC (S. aureus ATCC29213): ≤ 0.12 µg/mL
MIC (S. aureus 1086): ≤ 0.12 µg/mL
MIC (S. aureus 745): > 16 µg/mL
